Laboratory results reported in ChEMBL document CHEMBL3244006, “Synthesis and antinociceptive activity of 7-methoxycodeine” (J Med Chem, 1978).
Calls of active or inactive are those of the source. The calls are words filed in the database; no cut-off is given here.

Assays:
Mus musculus [1] = assay: Antinociceptive activity in mouse at 100 mg/kg, sc by Eddy hot-plate assay; format: functional, organism-based; design: dose 100 mg/kg
[2] = Stability of the compound in acidic media; format: physicochemical
Mus musculus [3] = assay: Antinociceptive activity in po dosed mouse by Eddy hot-plate assay; format: functional
Mus musculus [4] = assay: Antinociceptive activity in sc dosed mouse by Eddy hot-plate assay; format: functional
Mus musculus [5] = assay: Antinociceptive activity in mouse at 100 mg/kg, po by Eddy hot-plate assay; format: functional, organism-based; design: dose 100 mg/kg

Structure (SMILES)	ED50 (Mus musculus [3]) [µmol/kg]	ED50 (Mus musculus [4]) [µmol/kg]	other results
COC1=C[C@]23CCN(C)[C@H](Cc4c(Br)cc(OC)c(O)c42)[C@@H]3CC1=O	–	–	Activity (Mus musculus [1]): inactive
COC1=C[C@H]2[C@H]3Cc4ccc(OC)c5c4[C@@]2(CCN3C)[C@@H](O5)[C@H]1O	30.4	43.1	Stability [2]: Unstable
COc1ccc2c(c1O)[C@]13CCN(C)[C@H](C2)[C@@H]1CC(=O)C(=O)C3	–	26.7	Activity (Mus musculus [5]): inactive
COc1ccc2c3c1O[C@H]1[C@@H](O)C=C[C@H]4[C@@H](C2)N(C)CC[C@@]341 [CODEINE PHOSPHATE]	34	–	–
CN1CC[C@]23c4c5ccc(O)c4O[C@H]2[C@@H](O)C=C[C@H]3[C@H]1C5	18.8	3.3	–
COC1=C[C@H]2[C@H]3Cc4c(Br)cc(OC)c5c4[C@@]2(CCN3C)[C@@H](O5)C1=O	–	40.4	–
COC1=C[C@H]2[C@H]3Cc4c(Br)cc(OC)c(O)c4[C@@]2(CCN3C)CC1=O	–	–	Activity (Mus musculus [1]): inactive
